Experimental data from ChEMBL document CHEMBL3259695 (J Med Chem, 2014).

Legend:
[1] = Displacement of [3H]SCH 23390 from dopamine D1-like receptor in Sprague-Dawley rat caudate putamen after 90 mins; format: tissue-based
Rattus norvegicus [2] = species on record: Rattus norvegicus; assay: Selectivity ratio of Ki for dopamine D2-like receptor in Sprague-Dawley rat caudate putamen to Ki for dopamine D3 receptor in Sprague-Dawley rat ventral striatum; format: tissue-based
Rattus norvegicus [3] = species on record: Rattus norvegicus; assay: Selectivity ratio of Ki for dopamine D1-like receptor in Sprague-Dawley rat caudate putamen to Ki for dopamine D3 receptor in Sprague-Dawley rat ventral striatum; format: tissue-based
D(3) dopamine receptor [4] = target: D(3) dopamine receptor (Rattus norvegicus, UniProt P19020); assay: Displacement of [3H]R-(+)-7-OHDPAT from dopamine D3 receptor in Sprague-Dawley rat ventral striatum after 90 mins
D(3) dopamine receptor (Rattus norvegicus, UniProt P19020), sequence (P19020 whole entry): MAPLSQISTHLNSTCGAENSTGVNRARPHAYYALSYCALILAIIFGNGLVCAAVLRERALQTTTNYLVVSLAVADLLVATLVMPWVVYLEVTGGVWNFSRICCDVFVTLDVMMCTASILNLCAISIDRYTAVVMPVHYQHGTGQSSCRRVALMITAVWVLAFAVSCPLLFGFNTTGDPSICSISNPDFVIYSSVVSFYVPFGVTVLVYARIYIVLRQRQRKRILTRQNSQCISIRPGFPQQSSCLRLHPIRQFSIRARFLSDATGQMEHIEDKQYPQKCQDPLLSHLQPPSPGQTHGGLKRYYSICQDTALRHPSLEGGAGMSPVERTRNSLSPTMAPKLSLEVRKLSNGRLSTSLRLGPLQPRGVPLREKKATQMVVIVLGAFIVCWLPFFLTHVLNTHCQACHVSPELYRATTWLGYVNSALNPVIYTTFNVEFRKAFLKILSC

D(2) dopamine receptor [5] = target: D(2) dopamine receptor (Rattus norvegicus, UniProt P61169); assay: Displacement of [3H]Spiperone from dopamine D2-like receptor in Sprague-Dawley rat caudate putamen after 90 mins; format: tissue-based
D(2) dopamine receptor (Rattus norvegicus, UniProt P61169), sequence (P61169 whole entry): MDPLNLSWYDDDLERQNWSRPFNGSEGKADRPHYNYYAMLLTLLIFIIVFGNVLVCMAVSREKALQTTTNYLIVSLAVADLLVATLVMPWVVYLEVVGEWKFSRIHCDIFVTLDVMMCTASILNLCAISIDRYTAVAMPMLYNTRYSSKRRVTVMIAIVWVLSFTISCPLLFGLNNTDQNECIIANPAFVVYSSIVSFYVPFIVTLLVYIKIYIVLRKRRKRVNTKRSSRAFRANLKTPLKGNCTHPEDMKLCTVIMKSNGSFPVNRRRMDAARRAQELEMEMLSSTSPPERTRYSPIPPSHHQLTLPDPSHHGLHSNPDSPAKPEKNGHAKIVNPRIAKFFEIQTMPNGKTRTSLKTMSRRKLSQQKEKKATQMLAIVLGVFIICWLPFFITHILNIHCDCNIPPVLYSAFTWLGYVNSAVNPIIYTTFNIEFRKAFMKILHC

D(3) dopamine receptor [6] = target: T1, D(3) dopamine receptor (Homo sapiens, UniProt P35462); assay: Displacement of [3H]N-methylspiperone from human dopamine D3 receptor expressed in HEK293 cells after 1 hr by liquid scintillation counting analysis; format: cell-based
T1 sequence (P35462 whole entry): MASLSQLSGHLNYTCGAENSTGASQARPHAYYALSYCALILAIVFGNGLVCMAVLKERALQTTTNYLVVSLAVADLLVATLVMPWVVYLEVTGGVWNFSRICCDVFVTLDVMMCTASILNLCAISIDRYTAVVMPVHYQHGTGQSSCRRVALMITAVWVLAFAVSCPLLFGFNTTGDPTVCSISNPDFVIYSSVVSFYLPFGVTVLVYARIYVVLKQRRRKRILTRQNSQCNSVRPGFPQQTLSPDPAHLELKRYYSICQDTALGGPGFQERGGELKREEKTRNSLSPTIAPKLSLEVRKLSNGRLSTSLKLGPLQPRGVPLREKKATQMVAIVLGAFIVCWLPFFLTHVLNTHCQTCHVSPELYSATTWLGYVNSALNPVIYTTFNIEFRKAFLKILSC

D(2) dopamine receptor [7] = target: D(2) dopamine receptor (Homo sapiens, UniProt P14416); assay: Displacement of [3H]N-methylspiperone from human dopamine D2 receptor expressed in HEK293 cells after 1 hr by liquid scintillation counting analysis; format: cell-based
D(2) dopamine receptor (Homo sapiens, UniProt P14416), sequence (P14416 whole entry): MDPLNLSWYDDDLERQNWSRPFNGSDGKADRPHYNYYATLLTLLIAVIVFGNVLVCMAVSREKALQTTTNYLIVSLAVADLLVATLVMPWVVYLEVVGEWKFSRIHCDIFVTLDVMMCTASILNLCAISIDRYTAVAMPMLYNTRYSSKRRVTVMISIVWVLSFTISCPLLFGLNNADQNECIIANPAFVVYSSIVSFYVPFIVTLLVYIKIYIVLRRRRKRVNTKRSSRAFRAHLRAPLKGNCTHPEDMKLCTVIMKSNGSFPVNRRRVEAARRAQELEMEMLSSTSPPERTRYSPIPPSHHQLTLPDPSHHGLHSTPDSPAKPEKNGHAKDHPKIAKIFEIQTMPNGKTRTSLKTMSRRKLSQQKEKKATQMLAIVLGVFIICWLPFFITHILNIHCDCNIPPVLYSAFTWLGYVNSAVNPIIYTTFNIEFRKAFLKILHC

D(3) dopamine receptor [8] = target: T1, D(3) dopamine receptor
D(3) dopamine receptor [9] = target: T1, D(3) dopamine receptor; conditions: U2OS

| SMILES | Ki [1] | Ratio Ki (Rattus norvegicus [2]) | Ratio Ki (Rattus norvegicus [3]) | Ki (D(3) dopamine receptor [4]) | Ki (D(2) dopamine receptor [5]) | further results |
| --- | --- | --- | --- | --- | --- | --- |
| CCCN(CC[C@]1(O)C[C@@H](NC(=O)c2ccc3ccccc3c2)C1)[C@H]1C[C@@H]1c1ccccc1Cl (racemic) | 0.743 µM | 26 | 39 |  |  |  |
| CCCN[C@H]1C[C@@H]1c1ccccc1 | 123 µM | 82 | 105 | 1170 nM | 95.6 µM |  |
| N[C@@H]1C[C@H]1c1ccccc1.N[C@H]1C[C@@H]1c1ccccc1 (racemic) [TRANYLCYPROMINE] |  |  |  |  | 58.7 µM |  |
| CCCN(CC[C@]1(O)C[C@@H](NC(=O)c2ccc3ccccc3c2)C1)[C@H]1C[C@@H]1c1ccc(Cl)cc1 | 20.7 µM |  |  | 457 nM | > 100 µM |  |
| CCCN(CC[C@]1(O)C[C@@H](NC(=O)c2ccc3ccccc3c2)C1)[C@H]1C[C@@H]1c1cccc(Cl)c1 (racemic) | 1.8 µM |  | 64 |  | > 300 µM |  |
| CCN1CCC[C@H]1CNC(=O)c1c(O)c(Cl)cc(Cl)c1OC [RACLOPRIDE] |  |  |  |  |  | Ki (D(3) dopamine receptor [6]): 13.4 nM |
| CCCN(CC[C@]1(O)C[C@@H](NC(=O)c2ccc3ccccc3c2)C1)[C@@H]1C[C@H]1c1ccc(Cl)cc1 | 25.8 µM |  |  | 2.7 nM | > 300 µM | Ki (D(3) dopamine receptor [6]): 2.8 nM; Ki (D(2) dopamine receptor [7]): 623 nM; IC50 (D(3) dopamine receptor [8]): 327 nM; ED50 (D(3) dopamine receptor [9]): > 100000 nM |
| CCCN(CC[C@]1(O)C[C@@H](NC(=O)c2ccc3ccccc3c2)C1)[C@@H]1C[C@H]1c1ccccc1 | 2.83 µM | 30 | 64 | 44 nM | 1.31 µM |  |
| CCc1cc(Cl)c(OC)c(C(=O)NC[C@@H]2CCCN2CC)c1O [ETICLOPRIDE] |  |  |  |  |  | Ki (D(2) dopamine receptor [7]): 0.086 nM |
| CCCN[C@H]1CCc2nc(N)sc2C1 |  |  |  |  |  | ED50 (D(3) dopamine receptor [9]): 3.7 nM |
| CCCN[C@@H]1C[C@H]1c1ccccc1 | 90.6 µM | 81 | 76 | 1200 nM | 96.6 µM |  |
| Cc1ncoc1-c1nnc(SCCCN2CC3CC3(c3ccc(C(F)(F)F)cc3F)C2)n1C (stereo not drawn) | 38.8 µM |  |  | 46 nM |  |  |
| CCCN(CC[C@]1(O)C[C@@H](NC(=O)c2ccc3ccccc3c2)C1)[C@H]1C[C@@H]1c1ccccc1 | 3.09 µM | 20 | 29 | 108 nM | 2.14 µM |  |
| CCCN(CC[C@]1(O)C[C@@H](NC(=O)c2ccc3ccccc3c2)C1)C1CC1c1ccc(Cl)cc1 (mixture of isomers) | 2.2 µM |  |  |  |  |  |
